Measured values from ChEMBL document CHEMBL5532637, “Antimicrobial activity of natural and semi-synthetic carbazole alkaloids” (Eur J Med Chem, 2023).
Converted amounts (≈) assume the structure as drawn.

Legend:
Staphylococcus aureus [1] = assay: Antibacterial activity against Staphylococcus aureus ATCC 6538 assessed as zone of inhibition at 40 ug/ml incubated for 24 hrs by disk diffusion method; type: functional; settings: read-out: IZ
Bacillus subtilis [2] = assay: Antibacterial activity against Bacillus subtilis ATCC 6633 assessed as zone of inhibition at 40 ug/ml incubated for 24 hrs by disk diffusion method; type: functional; settings: read-out: IZ
Klebsiella pneumoniae [3] = assay: Antibacterial activity against Klebsiella pneumoniae ATCC 13883 assessed as zone of inhibition at 40 ug/ml incubated for 24 hrs by disk diffusion method; type: functional; settings: read-out: IZ
Escherichia coli [4] = assay: Antibacterial activity against Escherichia coli ATCC 25922 assessed as zone of inhibition at 40 ug/ml incubated for 24 hrs by disk diffusion method; type: functional; settings: read-out: IZ
Staphylococcus aureus [5] = assay: Antibacterial activity against Staphylococcus aureus ATCC 29213 assessed as inhibition of bacterial growth by microdilution assay; type: functional
Bacillus subtilis [6] = assay: Antibacterial activity against Bacillus subtilis 168 assessed as inhibition of bacterial growth by microdilution assay; type: functional
Staphylococcus simulans = assay: Antibacterial activity against Staphylococcus simulans 22 assessed as inhibition of bacterial growth by microdilution assay; type: functional
Enterococcus faecium = assay: Antibacterial activity against Enterococcus faecium BM 4147 assessed as inhibition of bacterial growth by microdilution assay; type: functional
Moraxella catarrhalis = assay: Antibacterial activity against Moraxella catarrhalis ATCC 43617 assessed as inhibition of bacterial growth by microdilution assay; type: functional
Staphylococcus aureus [7] = assay: Antibacterial activity against Staphylococcus aureus ATCC 6538 assessed as inhibition of bacterial growth incubated for 24 hrs by alamar blue assay; type: functional
[8] = tested on: Staphylococcus epidermidis; assay: Antibacterial activity against Staphylococcus epidermidis ATCC 12228 assessed as inhibition of bacterial growth incubated for 24 hrs by alamar blue assay; type: functional
Candida albicans [9] = assay: Antifungal activity against Candida albicans assessed as inhibition of fungal growth incubated for 1 to 5 days; type: functional; settings: time 1-5 day
Staphylococcus aureus [10] = assay: Antimicrobial activity against Staphylococcus aureus assessed as zone of inhibition at 40 ug/ml; type: functional; settings: read-out: IZ
Bacillus subtilis [11] = assay: Antimicrobial activity against Bacillus subtilis assessed as zone of inhibition at 40 ug/ml; type: functional; settings: read-out: IZ
Klebsiella pneumoniae [12] = assay: Antimicrobial activity against Klebsiella pneumoniae assessed as zone of inhibition at 40 ug/ml; type: functional; settings: read-out: IZ
Escherichia coli [13] = assay: Antimicrobial activity against Escherichia coli assessed as zone of inhibition at 40 ug/ml; type: functional; settings: read-out: IZ
Aspergillus niger [14] = assay: Antimicrobial activity against Aspergillus niger assessed as zone of inhibition at 50 ug/ml; type: functional; settings: read-out: IZ
Aspergillus flavus = assay: Antimicrobial activity against Aspergillus flavus assessed as zone of inhibition at 50 ug/ml; type: functional; settings: read-out: IZ
Fusarium oxysporum = assay: Antimicrobial activity against Fusarium oxysporum assessed as zone of inhibition at 50 ug/ml; type: functional; settings: read-out: IZ
Escherichia coli [15] = assay: Antibacterial activity against Escherichia coli assessed as inhibition of bacterial growth incubated for 18 to 24 hrs by broth macrodilution assay; type: functional; settings: time 18-24 hrs
Pseudomonas aeruginosa = assay: Antibacterial activity against Pseudomonas aeruginosa assessed as inhibition of bacterial growth incubated for 18 to 24 hrs by broth macrodilution assay; type: functional; settings: time 18-24 hrs
Salmonella typhi = assay: Antibacterial activity against Salmonella typhi assessed as inhibition of bacterial growth incubated for 18 to 24 hrs by broth macrodilution assay; type: functional, Salmonella enterica subsp. enterica serovar Typhi; settings: Salmonella enterica; time 18-24 hrs
Staphylococcus aureus [16] = assay: Antibacterial activity against Staphylococcus aureus NRRL B-767 assessed as inhibition of bacterial growth incubated for 18 to 24 hrs by microbroth dilution method; type: functional; settings: time 18-24 hrs
Bacillus subtilis [17] = assay: Antibacterial activity against Bacillus subtilis NRS-744 assessed as inhibition of bacterial growth incubated for 18 to 24 hrs by microbroth dilution method; type: functional; settings: time 18-24 hrs
Candida albicans [18] = assay: Antifungal activity against Candida albicans ATCC 10231 assessed as inhibition of fungal growth incubated for 24 hrs by broth dilution method; type: functional
Nakaseomyces glabratus [19] = assay: Antifungal activity against Candida glabrata DSM 11226 assessed as inhibition of fungal growth incubated for 24 hrs by broth dilution method; type: functional
Pichia kudriavzevii = assay: Antifungal activity against Candida krusei DSM 6128 assessed as inhibition of fungal growth incubated for 24 hrs by broth dilution method; type: functional
Candida albicans [20] = assay: Antifungal activity against Candida albicans assessed as inhibition of fungal growth incubated for 24 hrs by microplate reader assay; type: functional
Candida parapsilosis = assay: Antifungal activity against Candida parapsilosis assessed as inhibition of fungal growth incubated for 24 hrs by microplate reader assay; type: functional; settings: Lodderomyces parapsilosis
Nakaseomyces glabratus [21] = assay: Antifungal activity against Candida glabrata assessed as inhibition of fungal growth incubated for 24 hrs by microplate reader assay; type: functional
Staphylococcus aureus [22] = assay: Antibacterial activity against Staphylococcus aureus assessed as inhibition of bacterial growth by broth microdilution method; type: functional
Streptococcus pyogenes = assay: Antibacterial activity against Streptococcus pyogenes assessed as inhibition of bacterial growth by broth dilution method; type: functional
Salmonella typhimurium = assay: Antibacterial activity against Salmonella typhimurium assessed as inhibition of bacterial growth by broth dilution method; type: functional, Salmonella enterica subsp. enterica serovar Typhimurium; settings: Salmonella enterica
Escherichia coli [23] = assay: Antibacterial activity against Escherichia coli assessed as inhibition of bacterial growth by broth dilution method; type: functional
Escherichia coli [24] = assay: Antimicrobial activity against Escherichia coli assessed as zone of inhibition incubated for 24 hrs by disc diffusion method; type: functional
Bacillus subtilis [25] = assay: Antimicrobial activity against Bacillus subtilis assessed as zone of inhibition incubated for 24 hrs by disc diffusion method; type: functional
Staphylococcus aureus [26] = assay: Antimicrobial activity against Staphylococcus aureus assessed as zone of inhibition incubated for 24 hrs by disc diffusion method; type: functional
Shigella flexneri = assay: Antimicrobial activity against Shigella flexneri assessed as zone of inhibition incubated for 24 hrs by disc diffusion method; type: functional
Candida albicans [27] = assay: Antimicrobial activity against Candida albicans assessed as zone of inhibition incubated for 48 hrs by disc diffusion method; type: functional
Aspergillus niger [28] = assay: Antimicrobial activity against Aspergillus niger assessed as zone of inhibition incubated for 48 hrs by disc diffusion method; type: functional
Staphylococcus aureus [29] = assay: Antimicrobial activity against Staphylococcus aureus ATCC 6538 assessed as inhibition of microbial growth by microbroth dilution method; type: functional
Klebsiella pneumoniae [30] = assay: Antimicrobial activity against Klebsiella pneumoniae ATCC 4352 assessed as inhibition of microbial growth by microbroth dilution method; type: functional
Candida albicans [31] = assay: Antimicrobial activity against Candida albicans ATCC 10231 assessed as inhibition of microbial growth by microbroth dilution method; type: functional

## CCn1c2ccccc2c2cc(-c3cc(=O)c4ccccc4o3)ccc21
Staphylococcus aureus [1]
  zone of inhibition at 40 µg/mL: 24 mm
Bacillus subtilis [2]
  zone of inhibition at 40 µg/mL: 25 mm
Klebsiella pneumoniae [3]
  zone of inhibition at 40 µg/mL: 27 mm
Escherichia coli [4]
  zone of inhibition at 40 µg/mL: 29 mm

## c1ccc(CCNC2CCCc3c2[nH]c2ccc(C4CCCCC4)cc32)cc1 (stereo not drawn)
Staphylococcus aureus [5]
  MIC: 2 µg/mL (≈ 5.37 µM)
Bacillus subtilis [6]
  MIC: 2 µg/mL (≈ 5.37 µM)
Staphylococcus simulans
  MIC: 2 µg/mL (≈ 5.37 µM)
Enterococcus faecium
  MIC: 2 µg/mL (≈ 5.37 µM)
Moraxella catarrhalis
  MIC: 1 µg/mL (≈ 2.68 µM)

## COc1ccccc1OCCNCC(O)COc1cccc2[nH]c3ccccc3c12 (stereo not drawn) [CARVEDILOL]
Staphylococcus aureus [7]
  MIC: 40 µg/mL (≈ 98.4 µM)
[8]
  MIC: 40 µg/mL (≈ 98.4 µM)

## CCn1c2ccccc2c2cc(-c3cc(-c4cc(Cl)cc(O)c4O)n[nH]3)ccc21
Candida albicans [9]
  MIC: 25 µg/mL (≈ 61.9 µM)

## CCn1c2ccccc2c2cc(/C=C/C(=O)c3cc(Cl)cc(Cl)c3OCc3cn(Cc4ccccc4)nn3)ccc21
Staphylococcus aureus [10]
  zone of inhibition at 40 µg/mL: 21.4 mm
Bacillus subtilis [11]
  zone of inhibition at 40 µg/mL: 24.2 mm
Klebsiella pneumoniae [12]
  zone of inhibition at 40 µg/mL: 23.6 mm
Escherichia coli [13]
  zone of inhibition at 40 µg/mL: 26.4 mm
Aspergillus niger [14]
  zone of inhibition at 50 µg/mL: 15 mm
Aspergillus flavus
  zone of inhibition at 50 µg/mL: 12.9 mm
Fusarium oxysporum
  zone of inhibition at 50 µg/mL: 15.3 mm

## CCOC(=O)C1=C(C)NC2=C(C(=O)CC(C)(C)C2)C1c1ccc2c(c1)c1ccccc1n2CC (stereo not drawn)
Escherichia coli [15]
  MIC: 16 µg/mL (≈ 35 µM)
Pseudomonas aeruginosa
  MIC: 16 µg/mL (≈ 35 µM)
Salmonella typhi
  MIC: 16 µg/mL (≈ 35 µM)

## CCn1c2ccccc2c2cc(NC(=O)COc3cccc4cccnc34)ccc21
Staphylococcus aureus [16]
  MIC: 31.2 µg/mL (≈ 79 µM)
Bacillus subtilis [17]
  MIC: 31.2 µg/mL (≈ 79 µM)

## CNc1nc(Nc2ccc3[nH]c4ccc(Nc5cnc(N)c(NC)n5)cc4c3c2)cnc1N
Candida albicans [18]
  MIC: 250 µg/mL (≈ 566 µM)
Nakaseomyces glabratus [19]
  MIC: 62.5 µg/mL (≈ 142 µM)
Pichia kudriavzevii
  MIC: 31.2 µg/mL (≈ 70.8 µM)

## COc1ccc(CNCCCn2c3ccccc3c3ccccc32)cc1
Candida albicans [20]
  MIC80: 16 µg/mL (≈ 46.4 µM)
Candida parapsilosis
  MIC80: 8 µg/mL (≈ 23.2 µM)
Nakaseomyces glabratus [21]
  MIC80: 4 µg/mL (≈ 11.6 µM)

## CCOC(=O)C1=C(C)NC2=C(C(=O)c3ccccc32)C1c1ccc2c(c1)c1ccccc1n2CC (stereo not drawn)
Staphylococcus aureus [22]
  MIC: 32 µg/mL (≈ 69.2 µM)
Streptococcus pyogenes
  MIC: 64 µg/mL (≈ 138 µM)
Salmonella typhimurium
  MIC: 32 µg/mL (≈ 69.2 µM)
Escherichia coli [23]
  MIC: 32 µg/mL (≈ 69.2 µM)

## Cn1c2ccccc2c2cc(-c3cc(-c4ccccn4)nc(N)n3)ccc21
Escherichia coli [24]
  inhibition zone (IZ): 10 mm
Bacillus subtilis [25]
  inhibition zone (IZ): 18 mm
Staphylococcus aureus [26]
  inhibition zone (IZ): 18 mm
Shigella flexneri
  inhibition zone (IZ): 18 mm
Candida albicans [27]
  inhibition zone (IZ): 15 mm
Aspergillus niger [28]
  inhibition zone (IZ): 12 mm

## Oc1c(/C=N/c2ccc(Cl)cc2Cl)ccc2[nH]c3ccccc3c12
Staphylococcus aureus [29]
  MIC: 1.4 µg/mL
Klebsiella pneumoniae [30]
  MIC: 1.4 µg/mL
Candida albicans [31]
  MIC: 1.4 µg/mL
